Results published in US7531507B2, “Acylated nonadepsipeptides containing pyridyl alanine residues” (AiCuris GmbH & Co. KG, priority 2004, dated 2009).
≈ marks a conversion by molar mass, not a printed value. Starred links: 1 amine or outer side, 2 acyl side, 3 side chain; linkers in the order of their positions; H or OH if unused. Positions of bridges follow the written chain, without caps; N, C: chain ends. Non-standard residues stand in square brackets, D forms with d. Residues, ends and D or L forms follow the SMILES beside them. Phe(3R-OH) = O=C([C@@H](N[*:1])[C@H](O[*:3])c1ccccc1)[*:2]; Asn(3S-OH) = NC(=O)[C@@H](O)[C@H](N)C(=O)O; Leu(3R-OH) = CC(C)[C@@H](O)[C@H](N)C(=O)O; aThr = C[C@H](O)[C@H](N)C(=O)O

Assays:
[1] = test system: Staphylococcus aureus 133; format: cell-based; settings: Isosensitest medium, 10^5 microbes per ml, 37° C., 18-24 hours
Description: (§1) Determination of the Minimum Inhibitory Concentration (MIC):
(§2) The MIC is determined in the liquid dilution test in accordance with the NCCLS guidelines. Overnight cultures of Staphylococcus aureus 133, Enterococcus faecalis 27159, E. faecium 4147 and Streptococcus pneumoniae G9a are incubated with the described test substances in a 1:2 dilution series. The MIC determination is carried out with a cell count of 10^5 microbes per ml in Isosensitest medium (Difco, Irvine/USA), with the exception of S. pneumoniae which is tested in BHI broth (Difco, Irvine/USA) with 10% bovine serum with a cell count of 10^6 microbes per ml. The cultures are incubated at 37° C. for 18-24 hours, S. pneumoniae in the presence of 10% CO2.
(§3) The MIC is defined as the lowest concentration of each substance at which visible bacterial growth no longer occurs. The MIC values are reported in μg/ml.

[2] = test system: Streptococcus pneumoniae G9a; format: cell-based; settings: BHI broth with 10% bovine serum, 10^6 microbes per ml, 37° C., 18-24 hours, 10% CO2
Description: as §1, §2, §3

[3] = test system: E. faecium L4001; format: cell-based, Enterococcus faecium; settings: Isosensitest medium, 10^5 microbes per ml, 37° C., 18-24 hours
[4] = test system: E. faecalis ICB 27159; format: cell-based, Enterococcus faecalis; settings: Isosensitest medium, 10^5 microbes per ml, 37° C., 18-24 hours
Description: as §1, §2, §3

[5] = Determination of the free fraction (fu) in plasma via Transil or ultrafiltration; format: in vitro ADME, rat; settings: free fraction in rat plasma; read-out: fu (rat)
Description: Principle of the Determination of the Free Fraction via Transil:
The method described herein for determining the free fraction (fu) of a test substance is divided into 2 parts:
a) Determination of the Transil®/buffer partitioning ratio (MAbuffer) by incubating the test substance in a Transil® buffer (pH 7.4) dispersion and subsequently determining the concentration in the dispersion and in the buffer supernatant.
b) Determination of the Transil®/plasma partitioning ratio (MAplasma) by incubating the test substance in a Transil® plasma dispersion and subsequently determining the concentration in the dispersion and in the plasma.
The quotient of the two partitioning ratios gives fu.
Where substances are highly protein-bound, the plasma is usually diluted with isotonic phosphate buffer (pH 7.4) and then suspended with Transil®. Determination of fu′ (free fraction in diluted plasma) in this diluted protein solution takes place in analogy to the determination of fu. The free fraction in undiluted plasma is calculated from fu′ and the dilution factor.
Concerning this method, compare also: Schuhmacher, Joachim; Kohlsdorfer, Christian; Buehner, Klaus; Brandenburger, Tim; Kruk, Renate, “High-throughput determination of the free fraction of drugs strongly bound to plasma proteins.” Journal of Pharmaceutical Sciences 2004, 93, 816-830.
Determination of the Membrane Affinity of a Test Substance After Partitioning Between Transil® and Buffer (MAbuffer):
All incubations are carried out in suitable glass vessels, e.g. glass vials, ground-joint test tubes. The total volume is usually 0.5-5 ml, and the Transil® volume is 10-100 μl. If the membrane affinities are expected to be high, the Transil® dispersion can be diluted up to 20 times with phosphate buffer of pH 7.4, e.g. Dulbecco's PBS. Phosphate buffer of pH 7.4 is introduced into the incubation vessels, and the Transil® is pipetted in after thorough mixing. The test substance is pipetted in at a concentration of, for example, 200 ng/ml, n=6. The proportion of organic solvents should be ≦2%. The mixtures are incubated at room temperature i.e. on a mini-shaker at an angle of about 45°, at about 400 rpm for 30 min. The 100% value is determined by taking at least one aliquot of, for example, 100 μl, and the remaining mixture is centrifuged at about 1800 g for about 10 min. […]
The plasma of the species to be investigated is filtered through a semipermeable membrane. The concentration of substance in the filtrate is measured, and the free fraction fU is calculated therefrom. […] The concentration of substance in the ultrafiltrate (Cu, unbound substance concentration) and in the plasma before centrifugation (C; total substance concentration) is measured. The free fraction is calculated by the formula fu (%)=Cu/C*100.

Q: What does the source list for `CC[C@H](C)[C@@H]1NC(=O)[C@@H](CCCNC(=N)N)NC(=O)[C@H](CC(C)C)NC(=O)[C@H]([C@H](O)C(C)C)NC(=O)[C@@H](NC(=O)[C@H](CC(C)C)NC(=O)[C@H](N)CC(C)C)[C@@H](c2ccccc2)OC(=O)[C@H](CO)NC(=O)[C@H]([C@H](O)C(N)=O)NC(=O)CNC(=O)[C@H]([C@H](C)O)NC1=O` [Example 1A, D-Leucyl-N^1-4-{(3S,6S,12S,15S,18R,21S,24S,27S,28R)-6-[(1S)-2-amino-1-hydroxy-2-oxoethyl]-18-(3-{[amino(imino)methyl]amino}propyl)-12-[(1S)-1-hydroxyethyl]-3-(hydroxymethyl)-24-[(1R)-1-hydroxy-2-methylpropyl]-21-isobutyl-15-[(1S)-1-methylpropyl]-2,5,8,11,14,17,20,23,26-nonaoxo-28-phenyl-1-oxa-4,7,10,13,16,19,22,25-octaazacyclooctacosan-27-yl}-L-leucinamide bistrifluoroacetate (lysobactin), reference compound] (H-[dL]L[Phe(3R-OH)][Leu(3R-OH)]L[dR]I[aThr]G[Asn(3S-OH)]S; ester 3-C)?
A: MIC S. aureus 133 [1]: 0.5 µg/mL (≈ 0.392 µM); MIC S. pneumoniae G9a [2]: 0.063 µg/mL (≈ 0.0494 µM); MIC E. faecium L4001 [3]: 0.5 µg/mL (≈ 0.392 µM); MIC E. faecalis ICB 27159 [4]: 0.5 µg/mL (≈ 0.392 µM); fraction unbound at 30 min [5]: 0.0067
